Data on 17 compounds can be found in patent publication US20160272617A1, “SUBSTITUTED PHENYLALANINE DERIVATIVES” (BAYER PHARMA AKTIENGESELLSCHAFT, priority 2013, published 2016).

One test concerns human and animal plasma. Put plainly: Determination of anticoagulatory activity: activated partial thromboplastin time (aPTT) in plasma. Particulars: concentration of test substance which brings about a 1.5-fold extension of the aPTT; plasma species not given. A digest of the protocol:
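Citrated plasma (1:9, 0.11 M citrate; 4000 g, 15 min) from human or animal blood incubated with test compound and cephalin/kaolin PTT reagent for 3 min at 37° C.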

The target in the next test is T1, human factor XIa (Homo sapiens, UniProt P03951).
T1 construct: purchased Kordia
Put plainly: Measurement of FXIa inhibition (fluorogenic peptide substrate Boc-Glu(OBzl)-Ala-Arg-AMC). It counts as biochemical. The note with it: factor XIa from Kordia, 15 min preincubation, 30 min at 22° C., fluorescence. An outline of the steps:
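Released AMC fluorescence (360/460 nm) read after 30 min at 22 °C. The reaction was started with Boc-Glu(OBzl)-Ala-Arg-AMC (10 μM stock) after a 15 min preincubation of the enzyme (0.45 nM stock) with compound (final 50 μM to 0.00013 μM).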

What is called IC50 is the concentration that inhibits the measured activity by half. The low end stands for higher potency, the high end for lower potency.

Counter-ions that a name gives are not always drawn.

T1 sequence (P03951 388-625 limits assumed): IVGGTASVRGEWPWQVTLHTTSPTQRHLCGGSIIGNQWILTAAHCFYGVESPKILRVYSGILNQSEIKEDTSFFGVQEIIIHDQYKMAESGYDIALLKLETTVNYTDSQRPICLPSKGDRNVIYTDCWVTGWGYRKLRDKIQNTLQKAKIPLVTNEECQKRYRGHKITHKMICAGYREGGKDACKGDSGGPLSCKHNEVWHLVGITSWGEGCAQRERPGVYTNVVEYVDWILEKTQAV
T1 sequence (P03951 19-387 partner limits assumed): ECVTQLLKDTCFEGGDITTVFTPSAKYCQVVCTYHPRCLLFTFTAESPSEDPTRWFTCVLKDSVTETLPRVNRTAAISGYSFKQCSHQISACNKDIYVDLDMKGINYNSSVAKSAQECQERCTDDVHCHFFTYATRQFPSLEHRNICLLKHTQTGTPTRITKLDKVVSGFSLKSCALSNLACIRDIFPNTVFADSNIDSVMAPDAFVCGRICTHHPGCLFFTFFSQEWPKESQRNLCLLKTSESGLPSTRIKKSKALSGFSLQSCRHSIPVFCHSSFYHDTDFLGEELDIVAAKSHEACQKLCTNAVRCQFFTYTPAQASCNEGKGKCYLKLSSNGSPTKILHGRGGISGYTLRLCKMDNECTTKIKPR

Consider `Cc1cc(C(=O)NCCN)ccc1-c1ccc(C[C@H](NC(=O)[C@H]2CC[C@H](CN)CC2)C(=O)Nc2ccc3cn[nH]c3c2)cc1` [Example 3, N-(2-Aminoethyl)-4′-[(2S)-2-({[trans-4-(aminomethyl)cyclohexyl]carbonyl}amino)-3-(1H-indazol-6-ylamino)-3-oxopropyl]-2-methylbiphenyl-4-carboxamide hydrochloride], for which, in the test on human and animal plasma, the “aPTT” value came to 0.2 µmol/L. This compound displayed a 50% inhibitory concentration (IC50) against human factor XIa of 11 nM.

With `Cc1cc(C(=O)NC2C3CNCC32)ccc1-c1ccc(C[C@H](NC(=O)C2CCC(CN)CC2)C(=O)Nc2ccc(-c3nn[nH]n3)cc2)cc1` (stereo partly drawn) [Example 43, 4′-[(2S)-2-({[trans-4-(Aminomethyl)cyclohexyl]carbonyl}amino)-3-oxo-3-{[4-(2H-tetrazol-5-yl)phenyl]amino}propyl]-N-(3-azabicyclo[3.1.0]hex-6-yl)-2-methylbiphenyl-4-carboxamide hydrochloride], the “aPTT” value with human and animal plasma turned out to be 0.06 µmol/L. The same compound returned a concentration for half-maximal inhibition (IC50) at human factor XIa of 3.3 nM.

Consider `CCN(CC)CCCNC(=O)c1ccc(-c2ccc(C[C@H](NC(=O)[C@H]3CC[C@H](CN)CC3)C(=O)Nc3ccc4c(=O)[nH][nH]c4c3)cc2)c(C)c1` [Example 24, 4′-{(2S)-2-({[trans-4-(Aminomethyl)cyclohexyl]carbonyl}amino)-3-oxo-3-[(3-oxo-2,3-dihydro-1H-indazol-6-yl)amino]propyl}-N-[3-(diethylamino)propyl]-2-methylbiphenyl-4-carboxamide hydrochloride], for which the “aPTT” value with human and animal plasma turned out to be 0.31 µmol/L. For the same compound, the half-maximal inhibitory concentration (IC50) on human factor XIa is 18 nM.

In the case of `Cc1cc(C(=O)NC2CCNCC2)ccc1-c1ccc(C[C@H](NC(=O)[C@H]2CC[C@H](CN)CC2)C(=O)Nc2ccc3[nH]c(=O)[nH]c3c2)cc1` [Example 53, 4′-{(2S)-2-({[trans-4-(Aminomethyl)cyclohexyl]carbonyl}amino)-3-oxo-3-[(2-oxo-2,3-dihydro-1H-benzimidazol-5-yl)amino]propyl}-2-methyl-N-(piperidin-4-yl)biphenyl-4-carboxamide hydrochloride], the “aPTT” value in the test with human and animal plasma is 0.16 µmol/L. At human factor XIa, this compound gave an IC50 of 16 nM.

Take `Cc1cc(C(=O)NC2CCC(N(C)C)CC2)ccc1-c1ccc(CC(NC(=O)[C@H]2CC[C@H](CN)CC2)C(=O)Nc2ccc(-c3nc(C(F)(F)C(F)(F)C(=O)O)n[nH]3)cc2)cc1` (stereo partly drawn) [Example 101, 3-[5-(4-{[(2S)-2-({[trans-4-(Aminomethyl)cyclohexyl]carbonyl}amino)-3-(4′-{[4-(dimethyl-amino)cyclohexyl]carbamoyl}-2′-methylbiphenyl-4-yl)propanoyl]amino}phenyl)-1H-1,2,4-triazol-3-yl]-2,2,3,3-tetrafluoropropanoic acid hydrochloride]: in the test with human and animal plasma, the “aPTT” value is 0.07 µmol/L. On human factor XIa, inhibition was half-maximal at 1.1 nM (IC50).

Turning to `Cc1cc(C(=O)N[C@H]2CC[C@H](N(C)C)CC2)ccc1-c1ccc(C[C@H](NC(=O)[C@H]2CC[C@H](CN)CC2)C(=O)Nc2ccc3[nH]c(C(F)(F)C(F)(F)F)nc3c2)cc1` [Example 78, 4′-[(2S)-2-({[trans-4-(Aminomethyl)cyclohexyl]carbonyl}amino)-3-oxo-3-{[2-(pentafluoroethyl)-1H-benzimidazol-5-yl]amino}propyl]-N-[4-(dimethylamino)cyclohexyl]-2-methylbiphenyl-4-carboxamide hydrochloride], in the test with human and animal plasma, the “aPTT” value came to 0.38 µmol/L. The same compound gave an IC50 on human factor XIa of 12 nM.

For `CCN(CC)CCNC(=O)c1ccc(-c2ccc(C[C@H](NC(=O)[C@H]3CC[C@H](CN)CC3)C(=O)Nc3ccc(-c4nn[nH]n4)cc3)cc2)c(C)c1.Cl` [Example 2, 4′-[(2S)-2-({[trans-4-(Aminomethyl)cyclohexyl]carbonyl}amino)-3-oxo-3-{[4-(2H-tetrazol-5-yl)phenyl]amino}propyl]-N-[2-(diethylamino)ethyl]-2-methylbiphenyl-4-carboxamide hydrochloride], the “aPTT” value in the test on human and animal plasma came to 0.14 µmol/L. This compound had an IC50 against human factor XIa of 4.9 nM.

As to `Cc1cc(C(=O)NC2CCNCC2)ccc1-c1ccc(C[C@H](NC(=O)[C@H]2CC[C@H](CN)CC2)C(=O)Nc2ccc(-c3nc(C(F)(F)F)n[nH]3)cc2)cc1` [Example 48, 4′-[(2S)-2-({[trans-4-(Aminomethyl)cyclohexyl]carbonyl}amino)-3-oxo-3-({4-[3-(trifluoromethyl)-1H-1,2,4-triazol-5-yl]phenyl}amino)propyl]-2-methyl-N-(piperidin-4-yl)biphenyl-4-carboxamide hydrochloride], the “aPTT” value with human and animal plasma was found to be 0.1 µmol/L. This compound registered an IC50 at human factor XIa of 2.7 nM.

With `Cc1cc(C(=O)NCCO)ccc1-c1ccc(C[C@H](NC(=O)[C@H]2CC[C@H](CN)CC2)C(=O)Nc2ccc(-c3nn[nH]n3)cc2)cc1` [Example 18, 4′-[(2S)-2-({[trans-4-(Aminomethyl)cyclohexyl]carbonyl}amino)-3-oxo-3-{[4-(2H-tetrazol-5-yl)phenyl]amino}propyl]-N-(2-hydroxyethyl)-2-methylbiphenyl-4-carboxamide hydrochloride], in the test on human and animal plasma, the “aPTT” value was 0.16 µmol/L. At human factor XIa, it took 3.7 nM to reach half-maximal inhibition (IC50).

Consider `Cc1cc(C(=O)NC2C3CNCC32)ccc1-c1ccc(C[C@H](NC(=O)[C@H]2CC[C@H](CN)CC2)C(=O)Nc2ccc(-c3nnc(C(F)(F)C(F)(F)C(=O)O)[nH]3)cc2)cc1` (stereo partly drawn) [Example 154, 3-(5-[4-({(2S)-2-({[trans-4-(Aminomethyl)cyclohexyl]carbonyl}amino)-3-[4′-(3-azabicyclo[3.1.0]hex-6-ylcarbamoyl)-2′-methylbiphenyl-4-yl]propanoyl}amino)phenyl]-4H-1,2,4-triazol-3-yl}-2,2,3,3-tetrafluoropropanoic acid hydrochloride], for which the “aPTT” value with human and animal plasma stood at 0.09 µmol/L. The same compound had an IC50 on human factor XIa of 2.8 nM.

Consider `Cc1cc(C(=O)NC2CCNCC2)ccc1-c1ccc(C[C@H](NC(=O)[C@H]2CC[C@H](CN)CC2)C(=O)Nc2ccc(-c3nnc(CCC(=O)O)[nH]3)cc2)cc1` [Example 152, 3-{(5-[4-({(2S)-2-({[trans-4-(Aminomethyl)cyclohexyl]carbonyl}amino)-3-[2′-methyl-4′-(piperidin-4-ylcarbamoyl)biphenyl-4-yl]propanoyl}amino)phenyl]-4H-1,2,4-triazol-3-yl}propanoic acid hydrochloride], for which the “aPTT” value in the test with human and animal plasma was 0.7 µmol/L. This compound also returned a concentration for half-maximal inhibition (IC50) on human factor XIa of 5.3 nM.

Turning to `COC(=O)C(F)(F)C(F)(F)c1n[nH]c(-c2ccc(NC(=O)[C@H](Cc3ccc(-c4ccc(C(=O)NC5CCNCC5)cc4C)cc3)NC(=O)[C@H]3CC[C@H](CN)CC3)cc2)n1` [Example 129, Methyl 3-{5-[4-({(2S)-2-({[trans-4-(aminomethyl)cyclohexyl]carbonyl}amino)-3-[2′-methyl-4′-(piperidin-4-ylcarbamoyl)biphenyl-4-yl]propanoyl}amino)phenyl]-1H-1,2,4-triazol-3-yl}-2,2,3,3-tetrafluoropropanoate hydrochloride], the “aPTT” value in the test with human and animal plasma is 0.09 µmol/L. On human factor XIa, this compound registered an IC50 of 1.8 nM.

As to `Cc1cc(C(=O)N[C@@H]2CCNC2)ccc1-c1ccc(C[C@H](NC(=O)[C@H]2CC[C@H](CN)CC2)C(=O)Nc2ccc3[nH]c(C(F)(F)C(F)(F)F)nc3c2)cc1` [Example 80, 4′-[(2S)-2-({[trans-4-(Aminomethyl)cyclohexyl]carbonyl}amino)-3-oxo-3-{[2-(pentafluoroethyl)-1H-benzimidazol-5-yl]amino}propyl]-2-methyl-N-[(3R)-pyrrolidin-3-yl]biphenyl-4-carboxamide hydrochloride], the “aPTT” value with human and animal plasma worked out at 0.41 µmol/L. The IC50 on human factor XIa amounted to 17 nM.

Consider `Cc1cc(C(=O)NC2CCN(CC(F)(F)F)CC2)ccc1-c1ccc(C[C@H](NC(=O)[C@H]2CC[C@H](CN)CC2)C(=O)Nc2ccc(-c3nn[nH]n3)cc2)cc1` [Example 46, 4′-[(2S)-2-({[trans-4-(Aminomethyl)cyclohexyl]carbonyl}amino)-3-oxo-3-{[4-(2H-tetrazol-5-yl)phenyl]amino}propyl]-2-methyl-N-[1-(2,2,2-trifluoroethyl)piperidin-4-yl]biphenyl-4-carboxamide hydrochloride], for which the “aPTT” value with human and animal plasma amounted to 0.22 µmol/L. This compound also registered an IC50 on human factor XIa of 3.6 nM.

With `Cc1cc(-c2ccc(C[C@H](NC(=O)[C@H]3CC[C@H](CN)CC3)C(=O)Nc3ccc(-c4nnn[nH]4)cc3)cc2)ccc1C(=O)NC1CC1` [Example 95, 4′-[(2S)-2-({[trans-4-(Aminomethyl)cyclohexyl]carbonyl}amino)-3-oxo-3-{[4-(1H-tetrazol-5-yl)phenyl]amino}propyl]-N-cyclopropyl-3-methylbiphenyl-4-carboxamide hydrochloride], in the test on human and animal plasma, the “aPTT” value is 0.33 µmol/L. This compound returned a half-inhibitory concentration (IC50) at human factor XIa of 2.4 nM.

As to `Cc1cc(C(=O)NC2CCNCC2)ccc1-c1ccc(C[C@H](NC(=O)[C@H]2CC[C@H](CN)CC2)C(=O)Nc2ccc3cn[nH]c3c2)cc1` [Example 4, 4′-[(2S)-2-({[trans-4-(Aminomethyl)cyclohexyl]carbonyl}amino)-3-(1H-indazol-6-ylamino)-3-oxopropyl]-2-methyl-N-(piperidin-4-yl)biphenyl-4-carboxamide hydrochloride], the “aPTT” value in the test on human and animal plasma came to 0.21 µmol/L. Moreover, it took 11.9 nM to reach half-maximal inhibition on human factor XIa (IC50).

In the case of `Cc1cc(C(=O)NC2CCC(N(C)C)CC2)ccc1-c1ccc(C[C@H](NC(=O)[C@H]2CC[C@H](CN)CC2)C(=O)Nc2ccc(-c3nc(C(F)(F)C(F)(F)C(F)(F)F)n[nH]3)cc2)cc1` (stereo partly drawn) [Example 87, 4′-[(2S)-2-({[trans-4-(Aminomethyl)cyclohexyl]carbonyl}amino)-3-({4-[3-(heptafluoropropyl)-1H-1,2,4-triazol-5-yl]phenyl}amino)-3-oxopropyl]-N-[4-(dimethylamino)cyclohexyl]-2-methylbiphenyl-4-carboxamide hydrochloride], the “aPTT” value with human and animal plasma is 0.47 µmol/L. Also, the concentration for half-maximal inhibition (IC50) against human factor XIa came to 2.8 nM.
